Test results reported in the NIST ThermoML archive (doi:10.1021/je201014c).
Numbers after ± are expanded uncertainties.

Experiment: mn = molality of the nth substance listed, in mol/kg
Details: 100 kPa, Liquid, Alternating current cell with electrodes

Compound: CCCCn1cc[n+](C)c1.F[B-](F)(F)F [1-butyl-3-methylimidazolium tetrafluoroborate] + CN(C)C=O
- molar conductivity (283.15 K, m1 = 5.542e-05): 0.007204 ± 2e-05 S·m2/mol
- molar conductivity (283.15 K, m1 = 0.0002915): 0.00709 ± 2e-05 S·m2/mol
- molar conductivity (283.15 K, m1 = 0.0004895): 0.007031 ± 2e-05 S·m2/mol
- molar conductivity (283.15 K, m1 = 0.0006942): 0.006981 ± 2e-05 S·m2/mol
- molar conductivity (283.15 K, m1 = 0.001153): 0.006893 ± 2e-05 S·m2/mol
- molar conductivity (283.15 K, m1 = 0.001938): 0.006777 ± 2e-05 S·m2/mol
- molar conductivity (283.15 K, m1 = 0.002927): 0.006662 ± 2e-05 S·m2/mol
- molar conductivity (283.15 K, m1 = 0.003888): 0.00657 ± 2e-05 S·m2/mol
- molar conductivity (283.15 K, m1 = 0.005903): 0.006415 ± 2e-05 S·m2/mol
- molar conductivity (283.15 K, m1 = 0.008004): 0.006288 ± 2e-05 S·m2/mol
- molar conductivity (283.15 K, m1 = 0.009964): 0.006189 ± 2e-05 S·m2/mol
- molar conductivity (283.15 K, m1 = 0.012): 0.0061 ± 2e-05 S·m2/mol
- molar conductivity (283.15 K, m1 = 0.01485): 0.00599 ± 2e-05 S·m2/mol
- molar conductivity (288.15 K, m1 = 0.0001289): 0.007713 ± 2e-05 S·m2/mol
- molar conductivity (288.15 K, m1 = 0.0002628): 0.007644 ± 2e-05 S·m2/mol
- molar conductivity (288.15 K, m1 = 0.000427): 0.007581 ± 2e-05 S·m2/mol
- molar conductivity (288.15 K, m1 = 0.0006069): 0.007526 ± 2e-05 S·m2/mol
- molar conductivity (288.15 K, m1 = 0.001022): 0.007427 ± 2e-05 S·m2/mol
- molar conductivity (288.15 K, m1 = 0.001697): 0.007306 ± 2e-05 S·m2/mol
- molar conductivity (288.15 K, m1 = 0.002546): 0.007188 ± 2e-05 S·m2/mol
- molar conductivity (288.15 K, m1 = 0.003454): 0.007086 ± 2e-05 S·m2/mol
- molar conductivity (288.15 K, m1 = 0.005179): 0.006929 ± 2e-05 S·m2/mol
- molar conductivity (288.15 K, m1 = 0.007043): 0.006794 ± 2e-05 S·m2/mol
- molar conductivity (288.15 K, m1 = 0.008772): 0.006689 ± 2e-05 S·m2/mol
- molar conductivity (288.15 K, m1 = 0.01186): 0.006533 ± 2e-05 S·m2/mol
- molar conductivity (288.15 K, m1 = 0.01492): 0.006408 ± 2e-05 S·m2/mol
- molar conductivity (293.15 K, m1 = 0.000111): 0.00828 ± 2e-05 S·m2/mol
- molar conductivity (293.15 K, m1 = 0.0002943): 0.008172 ± 2e-05 S·m2/mol
- molar conductivity (293.15 K, m1 = 0.0004483): 0.008108 ± 2e-05 S·m2/mol
- molar conductivity (293.15 K, m1 = 0.000694): 0.008027 ± 2e-05 S·m2/mol
- molar conductivity (293.15 K, m1 = 0.001218): 0.007899 ± 2e-05 S·m2/mol
- molar conductivity (293.15 K, m1 = 0.001996): 0.007759 ± 2e-05 S·m2/mol
- molar conductivity (293.15 K, m1 = 0.002935): 0.007628 ± 2e-05 S·m2/mol
- molar conductivity (293.15 K, m1 = 0.003937): 0.007515 ± 2e-05 S·m2/mol
- molar conductivity (293.15 K, m1 = 0.005916): 0.007336 ± 2e-05 S·m2/mol
- molar conductivity (293.15 K, m1 = 0.007933): 0.00719 ± 2e-05 S·m2/mol
- molar conductivity (293.15 K, m1 = 0.01009): 0.007059 ± 2e-05 S·m2/mol
- molar conductivity (293.15 K, m1 = 0.01201): 0.00696 ± 2e-05 S·m2/mol
- molar conductivity (293.15 K, m1 = 0.01495): 0.006833 ± 2e-05 S·m2/mol
- molar conductivity (298.15 K, m1 = 0.0001246): 0.008822 ± 2e-05 S·m2/mol
- molar conductivity (298.15 K, m1 = 0.0003199): 0.0087 ± 2e-05 S·m2/mol
- molar conductivity (298.15 K, m1 = 0.000527): 0.008612 ± 2e-05 S·m2/mol
- molar conductivity (298.15 K, m1 = 0.000691): 0.008555 ± 2e-05 S·m2/mol
- molar conductivity (298.15 K, m1 = 0.001175): 0.008424 ± 2e-05 S·m2/mol
- molar conductivity (298.15 K, m1 = 0.001926): 0.008273 ± 2e-05 S·m2/mol
- molar conductivity (298.15 K, m1 = 0.002929): 0.008121 ± 2e-05 S·m2/mol
- molar conductivity (298.15 K, m1 = 0.003956): 0.007996 ± 2e-05 S·m2/mol
- molar conductivity (298.15 K, m1 = 0.005953): 0.007802 ± 2e-05 S·m2/mol
- molar conductivity (298.15 K, m1 = 0.008044): 0.00764 ± 2e-05 S·m2/mol
- molar conductivity (298.15 K, m1 = 0.009999): 0.007512 ± 2e-05 S·m2/mol
- molar conductivity (298.15 K, m1 = 0.01205): 0.007397 ± 2e-05 S·m2/mol
- molar conductivity (298.15 K, m1 = 0.0149): 0.007265 ± 2e-05 S·m2/mol
- molar conductivity (303.15 K, m1 = 0.0001037): 0.00939 ± 2e-05 S·m2/mol
- molar conductivity (303.15 K, m1 = 0.0002814): 0.009262 ± 2e-05 S·m2/mol
- molar conductivity (303.15 K, m1 = 0.000494): 0.00916 ± 2e-05 S·m2/mol
- molar conductivity (303.15 K, m1 = 0.0007407): 0.009069 ± 2e-05 S·m2/mol
- molar conductivity (303.15 K, m1 = 0.001192): 0.00894 ± 2e-05 S·m2/mol
- molar conductivity (303.15 K, m1 = 0.001886): 0.00879 ± 2e-05 S·m2/mol
- molar conductivity (303.15 K, m1 = 0.002913): 0.008621 ± 2e-05 S·m2/mol
- molar conductivity (303.15 K, m1 = 0.003912): 0.008489 ± 2e-05 S·m2/mol
- molar conductivity (303.15 K, m1 = 0.006107): 0.008261 ± 2e-05 S·m2/mol
- molar conductivity (303.15 K, m1 = 0.007974): 0.008107 ± 2e-05 S·m2/mol
- molar conductivity (303.15 K, m1 = 0.009993): 0.007966 ± 2e-05 S·m2/mol
- molar conductivity (303.15 K, m1 = 0.01195): 0.007849 ± 2e-05 S·m2/mol
- molar conductivity (303.15 K, m1 = 0.01492): 0.007699 ± 2e-05 S·m2/mol
- molar conductivity (308.15 K, m1 = 5.763e-05): 0.009991 ± 2e-05 S·m2/mol
- molar conductivity (308.15 K, m1 = 0.0002447): 0.009826 ± 2e-05 S·m2/mol
- molar conductivity (308.15 K, m1 = 0.0004495): 0.009716 ± 2e-05 S·m2/mol
- molar conductivity (308.15 K, m1 = 0.0006821): 0.009621 ± 2e-05 S·m2/mol
- molar conductivity (308.15 K, m1 = 0.001183): 0.009467 ± 2e-05 S·m2/mol
- molar conductivity (308.15 K, m1 = 0.001933): 0.009295 ± 2e-05 S·m2/mol
- molar conductivity (308.15 K, m1 = 0.002911): 0.009124 ± 2e-05 S·m2/mol
- molar conductivity (308.15 K, m1 = 0.003919): 0.008981 ± 2e-05 S·m2/mol
- molar conductivity (308.15 K, m1 = 0.005927): 0.008756 ± 2e-05 S·m2/mol
- molar conductivity (308.15 K, m1 = 0.008008): 0.008573 ± 2e-05 S·m2/mol
- molar conductivity (308.15 K, m1 = 0.009997): 0.008426 ± 2e-05 S·m2/mol
- molar conductivity (308.15 K, m1 = 0.01201): 0.008298 ± 2e-05 S·m2/mol
- molar conductivity (308.15 K, m1 = 0.0149): 0.00814 ± 2e-05 S·m2/mol
- molar conductivity (313.15 K, m1 = 9.063e-05): 0.0105 ± 2e-05 S·m2/mol
- molar conductivity (313.15 K, m1 = 0.0002952): 0.01034 ± 2e-05 S·m2/mol
- molar conductivity (313.15 K, m1 = 0.0004868): 0.01024 ± 2e-05 S·m2/mol
- molar conductivity (313.15 K, m1 = 0.0007015): 0.01015 ± 2e-05 S·m2/mol
- molar conductivity (313.15 K, m1 = 0.001177): 0.009997 ± 2e-05 S·m2/mol
- molar conductivity (313.15 K, m1 = 0.001951): 0.009811 ± 2e-05 S·m2/mol
- molar conductivity (313.15 K, m1 = 0.002946): 0.009626 ± 2e-05 S·m2/mol
- molar conductivity (313.15 K, m1 = 0.003906): 0.009482 ± 2e-05 S·m2/mol
- molar conductivity (313.15 K, m1 = 0.005912): 0.009242 ± 2e-05 S·m2/mol
- molar conductivity (313.15 K, m1 = 0.007925): 0.009053 ± 2e-05 S·m2/mol
- molar conductivity (313.15 K, m1 = 0.00996): 0.008895 ± 2e-05 S·m2/mol
- molar conductivity (313.15 K, m1 = 0.01199): 0.008759 ± 2e-05 S·m2/mol
- molar conductivity (313.15 K, m1 = 0.01511): 0.008574 ± 2e-05 S·m2/mol
- molar conductivity (318.15 K, m1 = 9.401e-05): 0.01103 ± 2e-05 S·m2/mol
- molar conductivity (318.15 K, m1 = 0.0002791): 0.01089 ± 2e-05 S·m2/mol
- molar conductivity (318.15 K, m1 = 0.0004526): 0.01079 ± 2e-05 S·m2/mol
- molar conductivity (318.15 K, m1 = 0.0006468): 0.01071 ± 2e-05 S·m2/mol
- molar conductivity (318.15 K, m1 = 0.001144): 0.01054 ± 2e-05 S·m2/mol
- molar conductivity (318.15 K, m1 = 0.001896): 0.01035 ± 2e-05 S·m2/mol
- molar conductivity (318.15 K, m1 = 0.0029): 0.01015 ± 2e-05 S·m2/mol
- molar conductivity (318.15 K, m1 = 0.003892): 0.009988 ± 2e-05 S·m2/mol
- molar conductivity (318.15 K, m1 = 0.005917): 0.00973 ± 2e-05 S·m2/mol
- molar conductivity (318.15 K, m1 = 0.00798): 0.009527 ± 2e-05 S·m2/mol
- molar conductivity (318.15 K, m1 = 0.009945): 0.009368 ± 2e-05 S·m2/mol
- molar conductivity (318.15 K, m1 = 0.01195): 0.009227 ± 2e-05 S·m2/mol
- molar conductivity (318.15 K, m1 = 0.01488): 0.009038 ± 2e-05 S·m2/mol
